The nature of data set [1]: Intrinsic clearance in human microsomes. Format: ADME.
The target of data set [2] is Acetyl-CoA carboxylase 1 (Rattus norvegicus, UniProt P11497). Nature of the data set: Inhibition of rat recombinant ACC1.
The subject of another data set is HepG2. Nature of the data set: Inhibition of fatty acid synthesis in human HepG2 cells. It counts as functional, cell-based.
Data set [3] has as its target Acetyl-CoA carboxylase 1 (Homo sapiens, UniProt Q13085). In words: In vitro inhibition of human recombinant His-tagged ACC1 assessed as malonyl-CoA level.
The nature of data set [4]: Lipophilicity, log D of the compound. It counts as physicochemical. Conditions: octanol/water.
Data set [5] addresses T1, Acetyl-CoA carboxylase 2 (Homo sapiens, UniProt O00763). In words: Inhibition of human ACC2 assessed as malonyl CoA formation by NADH-linked kinetic method.
Another data set is filed under the species Rattus norvegicus. In words: Reduction in fatty acid synthesis in Sprague-Dawley rat. It counts as functional.
Data set [6] deals with T1, Acetyl-CoA carboxylase 2. In words: In vitro inhibition of human recombinant His-tagged ACC2 assessed as malonyl-CoA level.

T1 sequence (O00763 whole entry): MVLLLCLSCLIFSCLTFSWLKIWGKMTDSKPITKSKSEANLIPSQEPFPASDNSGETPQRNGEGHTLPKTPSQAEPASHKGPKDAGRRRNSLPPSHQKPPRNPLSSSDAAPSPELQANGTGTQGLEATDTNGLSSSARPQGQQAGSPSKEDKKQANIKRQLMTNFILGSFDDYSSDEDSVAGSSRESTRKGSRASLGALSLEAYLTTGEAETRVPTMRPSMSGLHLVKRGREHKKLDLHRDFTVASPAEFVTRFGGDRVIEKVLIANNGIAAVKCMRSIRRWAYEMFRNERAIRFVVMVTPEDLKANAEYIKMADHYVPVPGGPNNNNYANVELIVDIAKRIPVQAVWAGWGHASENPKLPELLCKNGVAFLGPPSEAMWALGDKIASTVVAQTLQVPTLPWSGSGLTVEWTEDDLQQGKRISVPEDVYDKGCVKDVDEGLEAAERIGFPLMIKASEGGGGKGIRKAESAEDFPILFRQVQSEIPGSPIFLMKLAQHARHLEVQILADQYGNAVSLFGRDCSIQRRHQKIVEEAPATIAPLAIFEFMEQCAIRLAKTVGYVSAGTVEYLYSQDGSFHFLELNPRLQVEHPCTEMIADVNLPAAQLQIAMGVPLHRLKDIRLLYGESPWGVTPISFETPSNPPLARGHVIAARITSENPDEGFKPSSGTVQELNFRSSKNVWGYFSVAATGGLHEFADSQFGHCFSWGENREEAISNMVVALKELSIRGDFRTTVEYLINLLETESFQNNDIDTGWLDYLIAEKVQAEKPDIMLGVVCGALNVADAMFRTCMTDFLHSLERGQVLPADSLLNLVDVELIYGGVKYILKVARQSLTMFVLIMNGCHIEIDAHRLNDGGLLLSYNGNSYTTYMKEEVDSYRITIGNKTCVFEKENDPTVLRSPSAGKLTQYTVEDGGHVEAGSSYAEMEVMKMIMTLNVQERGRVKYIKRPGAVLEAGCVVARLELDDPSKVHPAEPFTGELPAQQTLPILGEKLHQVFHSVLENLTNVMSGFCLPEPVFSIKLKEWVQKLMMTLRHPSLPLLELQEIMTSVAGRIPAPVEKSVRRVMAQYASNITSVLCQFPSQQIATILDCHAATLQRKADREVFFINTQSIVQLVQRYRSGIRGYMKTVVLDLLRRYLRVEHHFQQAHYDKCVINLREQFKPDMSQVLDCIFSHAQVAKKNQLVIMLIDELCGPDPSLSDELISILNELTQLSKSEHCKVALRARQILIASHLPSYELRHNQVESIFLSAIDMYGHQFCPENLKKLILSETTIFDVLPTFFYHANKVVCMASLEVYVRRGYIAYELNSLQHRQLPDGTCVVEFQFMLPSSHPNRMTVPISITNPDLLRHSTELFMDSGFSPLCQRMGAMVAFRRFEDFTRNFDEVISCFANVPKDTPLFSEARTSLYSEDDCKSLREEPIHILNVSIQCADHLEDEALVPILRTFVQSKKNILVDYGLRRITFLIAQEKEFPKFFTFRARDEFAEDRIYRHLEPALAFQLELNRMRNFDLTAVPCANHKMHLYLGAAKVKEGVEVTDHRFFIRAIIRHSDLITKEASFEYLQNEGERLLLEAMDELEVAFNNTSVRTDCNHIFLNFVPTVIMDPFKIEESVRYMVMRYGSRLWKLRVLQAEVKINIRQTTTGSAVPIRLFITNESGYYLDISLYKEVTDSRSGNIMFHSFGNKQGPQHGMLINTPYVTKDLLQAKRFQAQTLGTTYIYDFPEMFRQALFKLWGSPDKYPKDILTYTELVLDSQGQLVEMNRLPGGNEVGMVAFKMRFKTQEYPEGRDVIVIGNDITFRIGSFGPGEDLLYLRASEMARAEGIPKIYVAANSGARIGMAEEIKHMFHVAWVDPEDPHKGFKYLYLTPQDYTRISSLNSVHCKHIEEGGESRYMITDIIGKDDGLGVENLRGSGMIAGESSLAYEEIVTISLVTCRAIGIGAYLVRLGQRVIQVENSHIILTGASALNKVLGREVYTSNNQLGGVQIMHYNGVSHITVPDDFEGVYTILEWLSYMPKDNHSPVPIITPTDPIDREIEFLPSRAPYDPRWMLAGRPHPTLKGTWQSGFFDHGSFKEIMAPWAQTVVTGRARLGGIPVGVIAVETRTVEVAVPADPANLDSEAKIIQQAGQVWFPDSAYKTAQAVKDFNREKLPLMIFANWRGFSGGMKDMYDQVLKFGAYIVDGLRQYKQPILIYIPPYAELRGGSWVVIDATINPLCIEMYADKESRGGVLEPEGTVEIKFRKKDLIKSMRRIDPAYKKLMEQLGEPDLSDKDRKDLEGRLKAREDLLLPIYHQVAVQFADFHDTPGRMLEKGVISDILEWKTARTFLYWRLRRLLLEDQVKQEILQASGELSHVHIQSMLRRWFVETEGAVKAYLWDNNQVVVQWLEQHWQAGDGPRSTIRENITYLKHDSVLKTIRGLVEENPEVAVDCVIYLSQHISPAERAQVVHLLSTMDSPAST

In turn, `Cc1cc2c(cc1C)C(=O)CC1(CCN(C(=O)c3cc(C)c4[nH]ncc4c3)CC1)O2` yielded a CLint scaled in data set [1] of 86 mL/min/kg. For the same compound, the IC50 at Acetyl-CoA carboxylase 1 [2] stood at 25 nM.

Consider `COc1ccccc1[C@@H](Cn1c(=O)n(C(C)(C)C(=O)O)c(=O)c2c(C)c(-c3ncco3)sc21)OC(C)C`, for which the half-maximal inhibitory concentration (IC50) in the data set with HepG2 is less than 100 nM.

`CCOC(=O)N1CCN(c2nc(C)nc3sc4c(c23)CCCC4)CC1`: the IC50 at Acetyl-CoA carboxylase 1 [3] was found to be 23000 nM.

As to `CC(C)(C)OC(=O)CC[C@H]1CC[C@H](CNC(=O)c2cc(-c3ccccc3)nc3ccccc23)CC1`, in data set [4], the logD was 5.9.

`Cc1cc(OCC2CC2)ccc1C1CCN(c2ccc(C(C)C(=O)NC3CC3)cc2)CC1` (racemic): the IC50 on Acetyl-CoA carboxylase 2 [5] came to 80 nM.

As for `CCCOc1ccc(C2CCN(c3ccc(C(C)NC(C)=O)cc3F)CC2)c(C)c1` (racemic), the IC50 on Acetyl-CoA carboxylase 2 [5] amounted to 60 nM.

For the compound `CCOc1ccc(N2CC(Oc3ccc([C@H](C)NC(=O)c4cn[nH]c4)cc3)C2)c(C)c1`, the half-inhibitory concentration (IC50) on Acetyl-CoA carboxylase 2 [5] is 50 nM.

As to `CC(C)(C)n1cc2c(n1)C(=O)CC1(CCN(C(=O)c3ccc4[nH]ncc4c3)CC1)O2`, the pH-dependent lipophilicity (logD) in data set [4] was 1.8. Besides, in data set [1], the CLint scaled was not above 8 mL/min/kg.

As to `COc1ccccc1[C@H](Cn1c(=O)n(C(C)(C)C(=O)O)c(=O)c2c(C)c(-c3ncco3)sc21)OC1CCOCC1` [FIRSOCOSTAT], the IC50 with HepG2 is less than 100 nM; at Acetyl-CoA carboxylase 1 [3], 2.6 nM; on Acetyl-CoA carboxylase 2 [6], 1.7 nM. For the same compound, in the data set listed under Rattus norvegicus, the ED50 is less than 0.3 mg/kg.

The values are drawn from ChEMBL document CHEMBL3407354, “Recent advances in the development of acetyl-CoA carboxylase (ACC) inhibitors for the treatment of metabolic disease” (J Med Chem, 2015).
